Here are results for four molecules from PMC7377239, “Cardiovascular Effects of Polychlorinated Biphenyls and Their Major Metabolites” (Environmental Health Perspectives, 2020).

The data set has as its system iCell cardiomyocytes (human iPSC-derived cardiomyocytes). Put plainly: High-content imaging of cytotoxicity and mitochondrial integrity in iPSC-CMs. In kind it is cell-based. As to conditions: for viability at 0.01 µM / activity at 0.01 µM / viability at 0.1 µM / activity at 0.1 µM / viability at 1 µM / activity at 1 µM / viability at 10 µM / activity at 10 µM / viability at 100 µM / activity at 100 µM / minimal effective concentration: Homo sapiens; for viability at 0.01 µM / activity at 0.01 µM / viability at 0.1 µM / activity at 0.1 µM / viability at 1 µM / activity at 1 µM / viability at 10 µM / activity at 10 µM / viability at 100 µM / activity at 100 µM: 0.00 µM = 100.00; for viability at 0.1 µM / activity at 0.1 µM: 0.10 µM. The method, boiled down:
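This assay measured cytotoxicity and mitochondrial integrity in iPSC cardiomyocytes held in 40μL maintenance medium. After compound exposure, a 2× staining solution with Hoechst 33342 (4μg/mL) and MitoTracker™ Orange (0.4μM) was applied for 15 min at 37°C. Cells were washed, fixed with 3.7% formaldehyde, imaged on DAPI and Cy3 channels, and scored in MetaXpress®.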

The mark [1] stands for this setting: Cardiomyocyte, 1.5 h, read-out: cm.cam.90min.
The mark [2] stands for this setting: Cardiomyocyte, 1.5 h, read-out: cm.mii.90min.
[3] abbreviates: Cardiomyocyte, 1.5 h, read-out: cm.mito.90min.
The mark [4] stands for this setting: Cardiomyocyte, 1.5 h, read-out: cm.tc.90min.
[5] abbreviates: Cardiomyocyte, 24 h, read-out: cm.cam.24hrs.
[6] abbreviates: Cardiomyocyte, 24 h, read-out: cm.mii.24hrs.
Setting [7] is: Cardiomyocyte, 24 h, read-out: cm.mito.24hrs.
Setting [8] is: Cardiomyocyte, 24 h, read-out: cm.tc.24hrs.
[9] abbreviates: Cardiomyocyte, 1.5 h, cardiomyocytes (cm), cam, 90 min, read-out: POD cm.cam.90min.
The mark [10] stands for this setting: Cardiomyocyte, 1.5 h, cardiomyocytes (cm), mii, 90 min, read-out: POD cm.mii.90min.
The mark [11] stands for this setting: Cardiomyocyte, 1.5 h, cardiomyocytes (cm), mito, 90 min, read-out: POD cm.mito.90min.
The mark [12] stands for this setting: Cardiomyocyte, 1.5 h, cardiomyocytes (cm), tc, 90 min, read-out: POD cm.tc.90min.
The mark [13] stands for this setting: Cardiomyocyte, 24 h, cardiomyocytes (cm), cam, 24 hrs, read-out: POD cm.cam.24hrs.
Where [14] appears, read: Cardiomyocyte, 24 h, cardiomyocytes (cm), mii, 24 hrs, read-out: POD cm.mii.24hrs.
Where [15] appears, read: Cardiomyocyte, 24 h, cardiomyocytes (cm), mito, 24 hrs, read-out: POD cm.mito.24hrs.
The mark [16] stands for this setting: Cardiomyocyte, 24 h, cardiomyocytes (cm), tc, 24 hrs, read-out: POD cm.tc.24hrs.

Counter-ions that a name gives are not always drawn. Like-named read-outs stand apart in the source and are kept apart here.

For `O=S(=O)(O)Oc1ccc(-c2cccc(Cl)c2)cc1Cl` [4-yl PCB 11 sulfate], the viability at 0.01 µM came to 100% under setting [1], 100% under setting [4], 88.6% under setting [5] and 89.5% under setting [8]. Moreover, the activity at 0.01 µM is 101% under setting [2], 99.5% under setting [3], 106% under setting [6] and 87.2% under setting [7]. For the same molecule, the viability at 0.1 µM is, setting by setting: under setting [1], 99.7%; under setting [4], 99.6%; under setting [5], 101%; under setting [8], 102%. Besides, the activity at 0.1 µM amounted to 117% under setting [2], 99.5% under setting [3], 114% under setting [6] and 102% under setting [7]. The viability at 1 µM stood at 101% under setting [1], 101% under setting [4], 102% under setting [5] and 102% under setting [8]. Further, the activity at 1 µM worked out at 114% under setting [2], 101% under setting [3], 101% under setting [6] and 101% under setting [7]. For the same molecule, the viability at 10 µM stood at 98.7% under setting [1], 98.6% under setting [4], 85.6% under setting [5] and 86.3% under setting [8]. Besides, the activity at 10 µM runs as follows: under setting [2], 103%; under setting [3], 98.5%; under setting [6], 102%; under setting [7], 82.8%. Further, the viability at 100 µM was determined as 99.5% under setting [1], 99.5% under setting [4], 10.5% under setting [5] and 10.7% under setting [8]. Also, the activity at 100 µM reads like this: under setting [2], 108%; under setting [3], 99.1%; under setting [6], 48.4%; under setting [7], 5.02%. The minimal effective concentration by setting is: (iPSC-CM, 1.5 h, iPSC-CM, read-out: cm.cam.90min POD) 100 µM; (iPSC-CM, 1.5 h, iPSC-CM, read-out: cm.mii.90min POD) 100 µM; (iPSC-CM, 1.5 h, iPSC-CM, read-out: cm.mito.90min POD) 100 µM; (iPSC-CM, 1.5 h, iPSC-CM, read-out: cm.tc.90min POD) 100 µM; (iPSC-CM, 24 h, iPSC-CM, read-out: cm.cam.24hrs POD) 5.91 µM; (iPSC-CM, 24 h, iPSC-CM, read-out: cm.mii.24hrs POD) 49.2 µM. For the same molecule, the minimal effective concentration amounted to 7.07 µM (iPSC-CM, 24 h, iPSC-CM, read-out: cm.mito.24hrs POD) and 6.38 µM (iPSC-CM, 24 h, iPSC-CM, read-out: cm.tc.24hrs POD).

As to `Oc1ccc(-c2ccc(Cl)cc2)cc1` [4'-OH-PCB 3], the minimal effective concentration was found to be 12.4 µM under setting [9]; 16 µM under setting [10]; 11.5 µM under setting [11]; 11.3 µM under setting [12]; 32.3 µM under setting [13]; 15.4 µM under setting [14]. Moreover, the minimal effective concentration reads like this: under setting [15], 37.2 µM; under setting [16], 38.4 µM.

In the case of `Oc1cccc(-c2ccc(Cl)cc2)c1` [3'-OH-PCB 3], the minimal effective concentration worked out at 16 µM under setting [9]; 35 µM under setting [10]; 15 µM under setting [11]; 14.8 µM under setting [12]; 14.1 µM under setting [13]; 23 µM under setting [14]. The minimal effective concentration under setting [15] was 14 µM and the minimal effective concentration under setting [16] was found to be 15.6 µM.

For the molecule `Clc1ccc(-c2cc(Cl)c(Cl)c(Cl)c2)cc1Cl` [PCB 126, 3,3′,4,4′,5-pentachlorobiphenyl], the minimal effective concentration was found to be 100 µM under setting [9]; 100 µM under setting [10]; 100 µM under setting [11]; 100 µM under setting [12]; 7.03 µM under setting [13]; 100 µM under setting [14]. Moreover, the minimal effective concentration was determined as 7.54 µM under setting [15] and 6.48 µM under setting [16]. Further, the “effect on cell viability in iPSC-CMs” value (iPSC-CMs, 0.01-100 μM, 90 min and 24 h) is recorded as “little effect on cell viability”.
